{
  "source": "paper PMC5778071",
  "about": "“Development of matrix metalloproteinase-targeted probes for lung inflammation detection with positron emission tomography” (Scientific Reports, 2018)",
  "type_in_all_cases": "biochemical",
  "key": {"[1]": {"target": "T1, recombinant human MMP-12 (Homo sapiens, UniProt P39900)", "T1 construct": "purchased R&D Systems 917-MP", "T1 sequence (P39900 106-470)": "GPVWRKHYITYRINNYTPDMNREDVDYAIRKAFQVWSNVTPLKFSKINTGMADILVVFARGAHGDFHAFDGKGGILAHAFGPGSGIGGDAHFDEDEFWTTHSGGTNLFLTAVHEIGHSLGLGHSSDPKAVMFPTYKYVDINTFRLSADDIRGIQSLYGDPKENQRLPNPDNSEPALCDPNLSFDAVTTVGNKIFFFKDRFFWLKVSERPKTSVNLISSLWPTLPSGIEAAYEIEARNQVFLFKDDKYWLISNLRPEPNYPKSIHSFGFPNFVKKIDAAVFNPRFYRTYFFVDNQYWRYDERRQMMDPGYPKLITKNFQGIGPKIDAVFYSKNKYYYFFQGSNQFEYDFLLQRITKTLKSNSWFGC", "experiment": "Competitive fluorogenic enzyme activity assay, MMP-12", "settings": "for IC50: fluorogenic substrate 5 μM, 5 nM enzyme, 30 min, read-out: IC50 toward MMP-12", "procedure": "Determination of the IC50 toward human MMP-2, MMP-9, MMP-12 and MMP-13 was performed by a competitive enzyme activity assay according to a literature procedure. […] The increase in fluorescence over time was measured using a SpectraMax M2e microplate reader (Molecular Devices Inc., CA, USA) with an excitation wavelength of 325 nm and an emission wavelength of 395 nm. The fluorescence intensity after 30 min was plotted as a function of the concentration of each of the compounds on a logarithmic scale to produce an inhibition curve that was subsequently fit with a sigmoidal function by a least squares method. The IC50 values were calculated from the inhibition curves using GraphPad Prism 6 (GraphPad Software, Inc., CA, USA)."}, "[2]": {"target": "T2, recombinant human MMP-13 (Homo sapiens, UniProt P45452)", "T2 construct": "purchased Anaspec AS72011", "experiment": "Competitive fluorogenic enzyme activity assay, MMP-13", "settings": "fluorogenic substrate 5 μM, 5 nM enzyme, 30 min; read-out: IC50 toward MMP-13", "procedure": "(§1) Determination of the IC50 toward human MMP-2, MMP-9, MMP-12 and MMP-13 was performed by a competitive enzyme activity assay according to a literature procedure. The assay was performed by incubating 5 μM of the synthesized fluorogenic peptide substrate Mca-Pro-Leu-Gly-Leu-Dpa(Dnp)-Ala-Arg-NH2 with 5 nM recombinant human MMP-2 (AS72005, Anaspec Inc., CA, USA), MMP-9 (911-MP, R&D Systems, MN, USA), MMP-12 (917-MP, R&D Systems) and MMP-13 (AS72011, Anaspec) along with various concentrations of ML5, I-ML5, PFB, PFP, IPFB, and IPFP (0.2–365 nM) in a buffer (pH 7.5, 50 mM tris(hydroxymethyl)aminomethane, 10 mM calcium chloride, 150 mM sodium chloride, and 0.01% Brij-35) containing 5% dimethyl sulfoxide. The increase in fluorescence over time was measured using a SpectraMax M2e microplate reader (Molecular Devices Inc., CA, USA) with an excitation wavelength of 325 nm and an emission wavelength of 395 nm. The fluorescence intensity after 30 min was plotted as a function of the concentration of each of the compounds on a logarithmic scale to produce an inhibition curve that was subsequently fit with a sigmoidal function by a least squares method. The IC50 values were calculated from the inhibition curves using GraphPad Prism 6 (GraphPad Software, Inc., CA, USA)."}, "[3]": {"target": "T3, recombinant human MMP-2 (Homo sapiens, UniProt P08253)", "T3 construct": "purchased Anaspec Inc. AS72005", "T3 sequence (P08253 110-660)": "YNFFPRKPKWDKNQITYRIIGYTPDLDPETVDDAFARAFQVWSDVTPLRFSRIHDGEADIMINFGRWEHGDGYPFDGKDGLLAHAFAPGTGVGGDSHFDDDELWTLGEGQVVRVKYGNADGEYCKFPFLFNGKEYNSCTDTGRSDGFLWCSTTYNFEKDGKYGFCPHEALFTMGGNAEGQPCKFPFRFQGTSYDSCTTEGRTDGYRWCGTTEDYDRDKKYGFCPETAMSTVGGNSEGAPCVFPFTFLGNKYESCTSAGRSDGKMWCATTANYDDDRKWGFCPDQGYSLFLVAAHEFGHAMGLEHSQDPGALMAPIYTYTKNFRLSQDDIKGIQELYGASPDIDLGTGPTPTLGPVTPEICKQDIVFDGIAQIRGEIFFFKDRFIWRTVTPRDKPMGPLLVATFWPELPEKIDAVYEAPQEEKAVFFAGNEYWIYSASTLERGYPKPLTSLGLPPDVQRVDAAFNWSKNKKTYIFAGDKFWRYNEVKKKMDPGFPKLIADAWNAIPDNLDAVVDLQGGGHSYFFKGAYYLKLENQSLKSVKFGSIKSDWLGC", "experiment": "Competitive fluorogenic enzyme activity assay, MMP-2", "settings": "fluorogenic substrate 5 μM, 5 nM enzyme, 30 min; read-out: IC50 toward MMP-2", "procedure": "as §1"}, "[4]": {"target": "T4, recombinant human MMP-9 (Homo sapiens, UniProt P14780)", "T4 construct": "purchased R&D Systems 911-MP", "T4 sequence (P14780 94-707)": "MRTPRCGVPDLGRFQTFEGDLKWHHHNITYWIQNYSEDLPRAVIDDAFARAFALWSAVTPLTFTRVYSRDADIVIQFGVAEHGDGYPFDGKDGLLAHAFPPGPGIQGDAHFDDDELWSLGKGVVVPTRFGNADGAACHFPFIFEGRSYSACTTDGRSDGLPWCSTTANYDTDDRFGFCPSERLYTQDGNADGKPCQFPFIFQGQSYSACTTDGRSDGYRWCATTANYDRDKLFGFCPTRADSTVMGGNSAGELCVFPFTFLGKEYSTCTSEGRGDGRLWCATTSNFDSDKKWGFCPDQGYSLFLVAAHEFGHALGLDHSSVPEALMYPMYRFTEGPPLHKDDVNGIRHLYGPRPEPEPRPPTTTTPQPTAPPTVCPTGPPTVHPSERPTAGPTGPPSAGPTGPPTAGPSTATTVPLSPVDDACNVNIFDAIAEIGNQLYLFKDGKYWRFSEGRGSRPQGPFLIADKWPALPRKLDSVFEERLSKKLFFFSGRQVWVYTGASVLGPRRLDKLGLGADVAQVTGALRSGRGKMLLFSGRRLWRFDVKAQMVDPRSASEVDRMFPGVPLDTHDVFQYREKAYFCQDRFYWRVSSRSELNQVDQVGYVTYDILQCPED", "experiment": "Competitive fluorogenic enzyme activity assay, MMP-9", "settings": "fluorogenic substrate 5 μM, 5 nM enzyme, 30 min; read-out: IC50 toward MMP-9", "procedure": "as §1"}},
  "data": [
    {"smiles": "CC(C)C[C@H](CC(=O)NO)C(=O)N[C@@H](Cc1ccc(I)cc1)C(=O)N[C@@H](CCCCNC(=O)C(C)F)C(N)=O", "note": "(stereo partly drawn) [^18F-IPFP]", "values": [
      {"measurement": "IC50", "setting": "[1]", "value": 1.5, "unit": "nM"}
    ]},
    {"smiles": "CC(C)C[C@H](CC(=O)NO)C(=O)N[C@@H](Cc1ccc(I)cc1)C(=O)N[C@@H](CCCCNC(=O)c1ccc(F)cc1)C(N)=O", "note": "[IPFB]", "values": [
      {"measurement": "IC50", "setting": "[2]", "value": "44.5 ± 21.6", "unit": "nM"},
      {"measurement": "IC50", "setting": "[3]", "value": "29.1 ± 9.3", "unit": "nM"},
      {"measurement": "IC50", "setting": "[1]", "value": "12.3 ± 4", "unit": "nM"},
      {"measurement": "IC50", "setting": "[4]", "value": "148 ± 30.6", "unit": "nM"}
    ]},
    {"smiles": "CC(C)C[C@H](CC(=O)NO)C(=O)N[C@@H](Cc1ccc(I)cc1)C(=O)N[C@@H](CCCCNC(=O)C(C)F)C(N)=O", "note": "(stereo partly drawn) [IPFP]", "values": [
      {"measurement": "IC50", "setting": "[2]", "value": "4.1 ± 1.7", "unit": "nM"},
      {"measurement": "IC50", "setting": "[3]", "value": "4.4 ± 2.3", "unit": "nM"},
      {"measurement": "inverse IC50 ratio (selectivity toward MMP-12) relative to MMP-2", "setting": "[1]; MMP-12 vs MMP-2", "value": 2.9},
      {"measurement": "inverse IC50 ratio (selectivity toward MMP-12) relative to MMP-9", "setting": "[1]; MMP-12 vs MMP-9", "value": 5.4},
      {"measurement": "inverse IC50 ratio (selectivity toward MMP-12) relative to MMP-13", "setting": "[1]; MMP-12 vs MMP-13", "value": 2.7},
      {"measurement": "IC50", "setting": "[1]", "value": "1.5 ± 0.8", "unit": "nM"},
      {"measurement": "IC50", "setting": "[4]", "value": "8.1 ± 2", "unit": "nM"}
    ]},
    {"smiles": "CC(C)C[C@H](CC(=O)NO)C(=O)N[C@@H](Cc1ccccc1)C(=O)N[C@@H](CCCCNC(=O)C(C)F)C(N)=O", "note": "(stereo partly drawn) [PFP]", "values": [
      {"measurement": "IC50", "setting": "[2]", "value": "11.1 ± 6.6", "unit": "nM"},
      {"measurement": "IC50", "setting": "[3]", "value": "12.5 ± 7.1", "unit": "nM"},
      {"measurement": "IC50", "setting": "[1]", "value": "4.5 ± 2.5", "unit": "nM"},
      {"measurement": "IC50", "setting": "[4]", "value": "54.1 ± 38.3", "unit": "nM"}
    ]},
    {"smiles": "CC(C)C[C@H](CC(=O)NO)C(=O)N[C@@H](Cc1ccccc1)C(=O)N[C@@H](CCCCNC(=O)c1ccc(F)cc1)C(N)=O", "note": "[PFB]", "values": [
      {"measurement": "IC50", "setting": "[2]", "value": "66.1 ± 26.1", "unit": "nM"},
      {"measurement": "IC50", "setting": "[3]", "value": "77.7 ± 4", "unit": "nM"},
      {"measurement": "IC50", "setting": "[1]", "value": "24.2 ± 14.1", "unit": "nM"},
      {"measurement": "IC50", "setting": "[4]", "value": "178 ± 24.2", "unit": "nM"}
    ]},
    {"smiles": "CC(C)C[C@H](CC(=O)NO)C(=O)N[C@@H](Cc1ccc(I)cc1)C(=O)N[C@@H](CCCCN)C(N)=O", "note": "[I-ML5]", "values": [
      {"measurement": "IC50", "setting": "[2]", "value": "11.8 ± 6.3", "unit": "nM"},
      {"measurement": "IC50", "setting": "[3]", "value": "3.7 ± 1", "unit": "nM"},
      {"measurement": "IC50", "setting": "[1]", "value": "2.3 ± 1.1", "unit": "nM"},
      {"measurement": "IC50", "setting": "[4]", "value": "13.8 ± 1.5", "unit": "nM"}
    ]}
  ]
}
